Measurements: paper PMC6327986 (Journal of Enzyme Inhibition and Medicinal Chemistry, 2019)

Biological target: hCA II (Homo sapiens, UniProt P00918)
Assay: stopped-flow CO2 hydrase assay, hCA II inhibition
Assay type: biochemical
Conditions: ratio of Ki values versus 3b

| Substance | fold more potent against hCA II than ferrocenyl derivative 3b [fold] | fold potency decrease against hCA II when compared to 3b [fold] |
| --- | --- | --- |
| [{(η^5-C5H4)–CH=N–N(H)C(O)–C6H4-4–SO2NH2}]Re(CO)3 [1b] | 8 | – |
| [{(η^5-C5H4)–CH = N–N(H)C(O)–CH2CH2–NH–C6H4-4–SO2NH2}]FeCp [3c] | – | 4.5 |
| [{(η^5-C5H4)–CH = N–N(H)C(O)–C6H4-4–SO2NH2}]Mn(CO)3 [2b] | 8 | – |
